Reference: ChEMBL document CHEMBL2412971, “Selective orexin receptor antagonists” (Bioorg Med Chem Lett, 2013)
Values belong to the compound of their own block, whether it stands above or below them.

Key:
[1] = biological target: T1, Orexin/Hypocretin receptor type 1 (Homo sapiens, UniProt O43613); test: (§1) Binding affinity to orexin receptor 1 (unknown origin)
T1 sequence (O43613 whole entry): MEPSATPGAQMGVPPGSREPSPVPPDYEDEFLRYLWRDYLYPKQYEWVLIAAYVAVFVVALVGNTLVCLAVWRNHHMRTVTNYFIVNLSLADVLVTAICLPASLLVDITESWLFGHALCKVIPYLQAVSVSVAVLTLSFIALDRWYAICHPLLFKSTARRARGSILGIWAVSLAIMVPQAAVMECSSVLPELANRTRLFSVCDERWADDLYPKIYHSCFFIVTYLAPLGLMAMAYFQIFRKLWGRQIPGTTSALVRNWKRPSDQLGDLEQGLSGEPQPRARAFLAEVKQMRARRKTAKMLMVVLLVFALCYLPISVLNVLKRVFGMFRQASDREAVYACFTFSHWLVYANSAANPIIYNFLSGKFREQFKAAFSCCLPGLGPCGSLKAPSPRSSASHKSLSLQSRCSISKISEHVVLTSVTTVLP

Orexin receptor type 2 [2] = biological target: T2, Orexin receptor type 2 (Homo sapiens, UniProt O43614); test: (§2) Binding affinity to orexin receptor 2 (unknown origin)
T2 sequence (O43614 whole entry): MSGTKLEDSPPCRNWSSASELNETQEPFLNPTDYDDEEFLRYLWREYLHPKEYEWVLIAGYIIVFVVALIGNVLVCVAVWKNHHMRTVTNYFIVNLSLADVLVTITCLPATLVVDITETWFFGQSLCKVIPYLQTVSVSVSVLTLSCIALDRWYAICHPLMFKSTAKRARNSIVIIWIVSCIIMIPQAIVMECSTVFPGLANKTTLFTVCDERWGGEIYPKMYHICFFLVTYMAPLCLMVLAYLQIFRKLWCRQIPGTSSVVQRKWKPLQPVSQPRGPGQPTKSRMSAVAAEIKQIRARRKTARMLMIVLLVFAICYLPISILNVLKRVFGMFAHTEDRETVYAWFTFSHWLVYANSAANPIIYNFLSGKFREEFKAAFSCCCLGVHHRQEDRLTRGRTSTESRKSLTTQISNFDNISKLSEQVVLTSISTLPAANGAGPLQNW

[3] = biological target: T1, Orexin/Hypocretin receptor type 1; test: Antagonist activity at human orexin receptor 1 expressed in CHO cells assessed as inhibition of orexin-A-induced calcium flux by FLIPR assay; type: functional, cell-based
Orexin receptor type 2 [4] = biological target: T2, Orexin receptor type 2; test: Antagonist activity at human orexin receptor 2 expressed in CHO cells assessed as inhibition of orexin-A-induced calcium flux by FLIPR assay; type: functional, cell-based
[5] = biological target: T3, Orexin/Hypocretin receptor type 1 (Homo sapiens) (UniProt O43613); test: as §1
T3 sequence (whole entry): T1 sequence (O43613 whole entry)

[6] = biological target: T4, Orexin receptor type 2 (Homo sapiens) (UniProt O43614); test: as §2
T4 sequence (whole entry): T2 sequence (O43614 whole entry)

[7] = biological target: T5, 5-hydroxytryptamine receptor 2C (Homo sapiens, UniProt P28335); test: Binding affinity to 5HT2C receptor (unknown origin)
T5 sequence (P28335 whole entry): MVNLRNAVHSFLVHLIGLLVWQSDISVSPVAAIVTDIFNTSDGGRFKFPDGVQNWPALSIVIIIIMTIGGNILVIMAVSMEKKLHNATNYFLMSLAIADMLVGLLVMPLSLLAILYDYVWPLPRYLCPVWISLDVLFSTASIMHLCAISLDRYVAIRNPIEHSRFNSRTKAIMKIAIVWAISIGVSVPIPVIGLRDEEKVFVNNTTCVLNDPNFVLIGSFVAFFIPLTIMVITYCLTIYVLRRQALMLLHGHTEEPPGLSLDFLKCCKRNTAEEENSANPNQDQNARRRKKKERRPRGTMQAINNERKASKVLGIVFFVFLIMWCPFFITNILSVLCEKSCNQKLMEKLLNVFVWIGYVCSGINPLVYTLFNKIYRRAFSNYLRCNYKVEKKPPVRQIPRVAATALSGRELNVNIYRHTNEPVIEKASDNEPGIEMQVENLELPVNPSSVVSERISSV

Adenosine receptor A2a = Adenosine receptor A2a (Homo sapiens, UniProt P29274); test: Binding affinity to adenosine A2A receptor (unknown origin)
Adenosine receptor A2a, sequence (P29274 whole entry): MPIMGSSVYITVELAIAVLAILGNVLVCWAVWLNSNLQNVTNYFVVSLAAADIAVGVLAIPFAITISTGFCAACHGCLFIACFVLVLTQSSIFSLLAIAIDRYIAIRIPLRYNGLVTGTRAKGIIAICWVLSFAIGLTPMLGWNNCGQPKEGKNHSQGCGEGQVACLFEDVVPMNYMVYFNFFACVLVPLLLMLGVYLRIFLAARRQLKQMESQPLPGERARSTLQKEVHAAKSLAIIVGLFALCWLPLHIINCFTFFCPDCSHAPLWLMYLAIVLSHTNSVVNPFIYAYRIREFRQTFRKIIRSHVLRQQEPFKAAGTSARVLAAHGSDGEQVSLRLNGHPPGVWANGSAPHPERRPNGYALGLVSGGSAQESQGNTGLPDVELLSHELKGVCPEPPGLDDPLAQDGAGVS

[8] = biological target: Kappa-type opioid receptor (Homo sapiens, UniProt P41145); test: Binding affinity to kappa opioid receptor (unknown origin)
Kappa-type opioid receptor, sequence (P41145 whole entry): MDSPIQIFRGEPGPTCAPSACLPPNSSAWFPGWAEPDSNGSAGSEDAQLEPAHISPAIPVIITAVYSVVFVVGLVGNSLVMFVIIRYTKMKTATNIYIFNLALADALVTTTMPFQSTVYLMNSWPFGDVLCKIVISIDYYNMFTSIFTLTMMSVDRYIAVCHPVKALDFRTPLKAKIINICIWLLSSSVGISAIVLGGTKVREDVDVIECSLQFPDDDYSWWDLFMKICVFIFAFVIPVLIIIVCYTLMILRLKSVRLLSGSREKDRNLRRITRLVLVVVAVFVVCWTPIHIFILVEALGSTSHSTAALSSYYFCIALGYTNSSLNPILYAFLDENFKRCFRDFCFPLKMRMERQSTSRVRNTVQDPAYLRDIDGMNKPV

[9] = biological target: 5-hydroxytryptamine receptor 2B (Homo sapiens, UniProt P41595); test: Binding affinity to 5HT2B receptor (unknown origin)
5-hydroxytryptamine receptor 2B, sequence (P41595 whole entry): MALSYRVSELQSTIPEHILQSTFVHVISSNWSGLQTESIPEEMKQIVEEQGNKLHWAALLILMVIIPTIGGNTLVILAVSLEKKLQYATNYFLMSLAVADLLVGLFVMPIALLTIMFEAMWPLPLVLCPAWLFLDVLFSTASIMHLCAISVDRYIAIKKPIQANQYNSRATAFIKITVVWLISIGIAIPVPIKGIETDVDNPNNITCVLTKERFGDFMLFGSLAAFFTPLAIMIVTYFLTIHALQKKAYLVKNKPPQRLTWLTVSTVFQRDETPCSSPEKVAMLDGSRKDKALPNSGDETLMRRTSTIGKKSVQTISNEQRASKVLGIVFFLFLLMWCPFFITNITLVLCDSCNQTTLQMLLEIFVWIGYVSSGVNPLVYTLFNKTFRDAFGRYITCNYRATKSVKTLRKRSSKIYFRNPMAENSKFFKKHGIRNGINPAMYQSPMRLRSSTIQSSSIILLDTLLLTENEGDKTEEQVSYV

D(1A) dopamine receptor = D(1A) dopamine receptor (Homo sapiens, UniProt P21728); test: Binding affinity to dopamine D1 receptor (unknown origin)
D(1A) dopamine receptor, sequence (P21728 whole entry): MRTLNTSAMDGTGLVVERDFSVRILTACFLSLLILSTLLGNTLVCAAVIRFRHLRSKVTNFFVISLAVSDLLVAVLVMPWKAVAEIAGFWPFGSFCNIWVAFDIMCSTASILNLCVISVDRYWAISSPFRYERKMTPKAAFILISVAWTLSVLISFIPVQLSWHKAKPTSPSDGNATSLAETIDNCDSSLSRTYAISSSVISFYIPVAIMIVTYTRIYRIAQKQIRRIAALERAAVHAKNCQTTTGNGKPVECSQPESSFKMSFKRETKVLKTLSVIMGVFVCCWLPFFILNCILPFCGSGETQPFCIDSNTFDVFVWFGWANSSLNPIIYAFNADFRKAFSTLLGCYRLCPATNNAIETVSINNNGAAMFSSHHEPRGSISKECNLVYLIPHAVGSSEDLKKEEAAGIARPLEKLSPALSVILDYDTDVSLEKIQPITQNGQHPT

Structure (SMILES): Cc1cc(C)nc(NC[C@@H]2CC3(CC3)CN2C(=O)c2nc(C)sc2-c2ccccc2)n1
Kb [5]: 0.0316 µM
Kb [6]: 0.0025 µM

Structure (SMILES): Cc1cccc(-c2sc(C)nc2C(=O)N2CCC2CNC(=O)c2c(N)nc3sccn23)c1 (racemic)
IC50 [3]: 0.01 µM
IC50 (Orexin receptor type 2 [4]): 0.005 µM

Structure (SMILES): Cc1nc2ccc(NC(=O)Nc3ccnc4cccnc34)cc2o1
Ki [7]: 1.2 µM
Ki (Adenosine receptor A2a): 0.67 µM

Structure (SMILES): Cc1cc(C)nc(N2CC[C@@H]3CN(C(=O)c4cc(F)ccc4-n4nccn4)[C@H]3C2)n1
Ki [3]: 1.4 µM
Ki (Orexin receptor type 2 [4]): 0.018 µM

Structure (SMILES): Cc1ccc(-n2nccn2)c(C(=O)N2C[C@H](COc3ncccc3C)OC[C@H]2C)c1
Ki [3]: 0.72 µM

Structure (SMILES): Cc1ccc(-c2ncccn2)c(C(=O)N2C[C@H](COc3ccc(F)cn3)CC[C@H]2C)c1 [FILOREXANT]
Ki (Orexin receptor type 2 [2]): 0.0003 µM

Structure (SMILES): COc1c(F)cccc1C(=O)N1C[C@@H](C)CC[C@H]1CNc1ccc(Br)cn1 (racemic)
Kb [5]: 0.0016 µM
Ki [8]: 0.32 µM
Kb [6]: 0.126 µM

Structure (SMILES): COc1ccc(C[C@H]2c3cc(OC)c(OC)cc3CCN2[C@@H](C(=O)NC(C)C)c2ccccc2)cc1OC
IC50 [1]: 0.006 µM

Structure (SMILES): CC1(C)OC[C@H](NC(=O)Nc2ccc(Br)cc2Br)[C@H](c2ccccc2)O1
Ki [1]: 1.64 µM
Ki (Orexin receptor type 2 [2]): 0.006 µM

Structure (SMILES): CCOc1ccc(C)nc1C(=O)N1C[C@@H]2C[C@@H]2C[C@H]1CNc1ncc(C(F)(F)F)cn1
Kb [5]: 0.0003 µM

Structure (SMILES): CCOc1ccc(C)nc1C(=O)N1C[C@@H]2C[C@@H]2C[C@H]1CNc1ncc(C)cn1
Kb [5]: 0.0008 µM
Kb [6]: 0.1 µM

Structure (SMILES): CCCOc1ccc(C)nc1C(=O)N1C[C@@H]2C[C@@H]2C[C@H]1CNc1ncc(C(F)(F)F)cn1
Kb [5]: 0.0003 µM
Kb [6]: 0.063 µM

Structure (SMILES): Cc1nc(C(=O)N2CC3(CC3)C[C@H]2CNc2ccc(Cl)cn2)c(-c2ccccc2)s1
Kb [5]: 0.005 µM
Kb [6]: 0.0794 µM

Structure (SMILES): Cc1ccc(-c2ncccc2C)c(C(=O)N2C[C@@H]3C[C@@H]3C[C@H]2CNc2ncc(C(F)(F)F)cn2)n1
Kb [5]: 0.0006 µM
Kb [6]: 0.016 µM

Structure (SMILES): Cc1cnn(-c2ccc(C)nc2C(=O)N2C[C@@H]3C[C@@H]3C[C@H]2CNc2ncc(C(F)(F)F)cn2)c1
Kb [5]: 0.0006 µM
Kb [6]: 0.0004 µM

Structure (SMILES): Cc1cccc(-c2sc(C)nc2C(=O)N2CCC2CNC(=O)c2cccc3c2OCCN3C)c1 (racemic)
IC50 [3]: 3.1 µM
IC50 (Orexin receptor type 2 [4]): 0.013 µM

Structure (SMILES): CCCOc1ccc(C)nc1C(=O)N1C[C@@H]2C[C@@H]2C[C@H]1CNc1cnc(C)c(C)n1
Kb [5]: 0.001 µM
Kb [6]: 0.0013 µM

Structure (SMILES): Cc1ccc(NC[C@@H]2C[C@H]3C[C@H]3CN2C(=O)c2nc(C)ccc2OCC2CC2)nc1
Kb [5]: 0.0005 µM
Kb [6]: 0.004 µM

Structure (SMILES): Cc1ccc(-n2nccn2)c(C(=O)N2CCC[C@@H](COc3ccccn3)[C@@H]2C)c1
Ki [1]: 0.001 µM

Structure (SMILES): Cc1cc(NC(=O)Nc2ccc(N(C)C)cc2)c2cc(F)cc(F)c2n1
Ki [1]: 0.022 µM
Ki [9]: 0.32 µM
Ki (D(1A) dopamine receptor): 1.78 µM
Ki (Orexin receptor type 2 [2]): 1.4 µM

Structure (SMILES): Cc1nc(C(=O)N2CC3(CC3)C[C@H]2CNc2ncc(Cl)cn2)c(-c2ccccc2)s1
Kb [5]: 0.158 µM
Kb [6]: 0.158 µM

Further lines, results first:

Ki [1]: 0.0011 µM
Ki (Orexin receptor type 2 [2]): 0.129 µM
Structure (SMILES): Cc1nc(C(=O)N2CCC[C@H]2Cc2nnc(-c3ccccc3)o2)c(-c2ccccc2F)s1

Ki (Orexin receptor type 2 [2]): 0.008 µM
Structure (SMILES): CNC(=O)[C@@H](c1ccccc1)N1CCc2cc(OC)c(OC)cc2[C@@H]1CCc1ccc(C(F)(F)F)cc1 [ALMOREXANT]

IC50 [3]: 9.19 µM
IC50 (Orexin receptor type 2 [4]): 0.096 µM
Structure (SMILES): O=C(Cn1cc(S(=O)(=O)Cc2ccc(F)cc2)c2ccccc21)NCc1ccc(F)cc1

IC50 [3]: 4.36 µM
IC50 (Orexin receptor type 2 [4]): 0.005 µM
Structure (SMILES): CN(Cc1ccc(F)cc1)C(=O)Cn1cc(S(=O)(=O)Cc2ccc(F)cc2)c2ccccc21

IC50 [3]: > 10 µM
IC50 (Orexin receptor type 2 [4]): 0.194 µM
Structure (SMILES): CN(Cc1ccc(F)cc1)C(=O)Cc1nc(S(=O)(=O)Cc2ccccc2)c2ccccn12

IC50 [3]: 3.78 µM
IC50 (Orexin receptor type 2 [4]): 0.001 µM
Structure (SMILES): Cc1c(S(=O)(=O)Cc2ccccc2)c2ccccn2c1CC(=O)N(C)Cc1ccccc1

Ki [1]: 4.36 µM
Ki (Orexin receptor type 2 [2]): 0.0057 µM
Structure (SMILES): Cc1c(S(=O)(=O)Cc2ccc(F)cc2)c2ccccn2c1CC(=O)N(C)Cc1ccc(F)cc1

Kd [1]: 3.05 µM
Kd (Orexin receptor type 2 [2]): 0.007 µM
Structure (SMILES): CCn1nc(C)cc1C(=O)NCC[C@H](Cc1ccccc1)N(C)C(=O)c1cc(C)ccc1-n1nccn1

Ki [1]: 0.0011 µM
Ki (Orexin receptor type 2 [2]): 0.129 µM
Structure (SMILES): [3H]c1cccc([3H])c1-c1nnc(C[C@@H]2CCCN2C(=O)c2nc(C)sc2-c2ccccc2F)o1

IC50 [3]: 0.998 µM
IC50 (Orexin receptor type 2 [4]): 0.014 µM
Structure (SMILES): CN(Cc1ccccc1)C(=O)Cn1nc(S(=O)(=O)Cc2ccccc2)c2ccccc21

Ki [1]: 0.036 µM
Ki (Orexin receptor type 2 [2]): > 10 µM
Structure (SMILES): CCN(CC)c1ccc(NC(=O)c2oc3ccccc3c2C)cc1

IC50 [3]: 2.38 µM
IC50 (Orexin receptor type 2 [4]): 0.0008 µM
Structure (SMILES): Cc1c(S(=O)(=O)Cc2ccccc2)c2ccccn2c1CC(=O)N(C)Cc1ccc(F)cc1

Ki [1]: 0.0005 µM
Structure (SMILES): Cc1ccc(-n2nccn2)c(C(=O)N2CCC[C@@H](COc3nccc4ccccc34)[C@@H]2C)c1

Ki [1]: 0.0087 µM
Ki (Orexin receptor type 2 [2]): 0.503 µM
Structure (SMILES): CN(C)c1ccc(NC(=O)Nc2ccnc3c(F)ccc(F)c23)cc1

Ki [3]: 0.0022 µM
Structure (SMILES): Cc1ccc(-n2nccn2)c(C(=O)N2C[C@H](COc3nccc4ccccc34)OC[C@H]2C)c1

IC50 [3]: 3.46 µM
IC50 (Orexin receptor type 2 [4]): 0.035 µM
Structure (SMILES): CN(Cc1ccccc1)C(=O)Cn1cc(S(=O)(=O)Cc2ccccc2)c2ccccc21

Ki [1]: 0.0003 µM
Structure (SMILES): Cc1nc(C(=O)N2CCCC[C@H]2CNC(=O)c2cccc3occc23)c(-c2ccc(F)cc2)s1 [SB-649868]
